From patent US10316038B2, “Pyrrolopyrimidine ITK inhibitors for treating inflammation and cancer” (ACLARIS THERAPEUTICS, INC., priority 2017, dated 2019)
Where two headings read alike, the source gives them in different places.

Legend:
[1] = molecular target: T1, ITK (Homo sapiens, UniProt Q08881); test: ITK inhibitor binding potency (LanthaScreen competitive binding assay); conditions: TR-FRET competitive binding, 10 nM ITK, 50 nM kinase tracer-236; pre-incubation condition not given; read-out: ITK Inhibition IC50
T1 sequence (Q08881 1-620): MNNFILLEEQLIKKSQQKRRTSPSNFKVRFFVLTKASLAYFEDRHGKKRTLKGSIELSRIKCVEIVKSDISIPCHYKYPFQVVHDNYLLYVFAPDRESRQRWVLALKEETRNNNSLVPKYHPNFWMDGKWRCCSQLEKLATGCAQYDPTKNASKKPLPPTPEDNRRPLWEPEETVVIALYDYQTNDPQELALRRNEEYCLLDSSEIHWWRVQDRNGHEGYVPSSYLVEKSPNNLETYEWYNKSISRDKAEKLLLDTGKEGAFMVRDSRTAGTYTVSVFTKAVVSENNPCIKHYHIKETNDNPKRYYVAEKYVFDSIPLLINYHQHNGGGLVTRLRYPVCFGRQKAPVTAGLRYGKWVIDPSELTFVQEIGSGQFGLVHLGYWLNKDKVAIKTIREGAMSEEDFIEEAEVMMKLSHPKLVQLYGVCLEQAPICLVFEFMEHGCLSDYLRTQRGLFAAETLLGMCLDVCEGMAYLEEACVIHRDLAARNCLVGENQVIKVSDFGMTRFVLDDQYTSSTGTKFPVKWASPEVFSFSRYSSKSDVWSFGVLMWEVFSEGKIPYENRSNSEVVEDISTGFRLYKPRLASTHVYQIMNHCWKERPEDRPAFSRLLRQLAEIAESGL
Text: The ability of candidate compounds to interact with ITK is quantitated by a competitive binding assay using the LanthaScreen technology developed by Life Technologies. This assay is based on the binding of a proprietary, Alexa Fluor™ 647-labeled, ATP-competitive kinase inhibitor (kinase tracer-236) to the ITK expression construct in the presence of a Europium-conjugated antibody, resulting in a FRET (fluorescence resonance energy transfer) signal. Displacement of the kinase tracer by compound results in a lower emission ratio upon excitation of the Europium chelate. Candidate compounds are designed as potential irreversible inhibitors of ITK, capable of ligating to an active site cysteine residue resulting in time dependent covalent binding. The time dependent nature of irreversible inhibition is investigated by performing the binding assay with and without a pre-incubation of compound and ITK. […] The inhibitory potency of candidate compounds is measured in 20 mM HEPES pH 7.5, 10 mM MgCl2, 0.01% BSA, 0.0005% Tween-20, and 2% DMSO in the presence of 10 nM ITK, 2 nM Eu-anti-GST antibody, and 50 nM kinase tracer-236 using a 384-well plate format. Background signal is defined in the absence of ITK and uninhibited signal is defined in the presence of vehicle (2% DMSO) alone. Compounds were evaluated in an 11 point dose-response ranging from 20 uM to 0.34 nM. The binding assays are performed under two preincubation conditions to evaluate time dependence of inhibition. For the pre-incubation assay, ITK and Eu-anti-GST antibody are pre-incubated with compound or vehicle for two hours prior to the addition of kinase tracer. The non-preincubated assay is run under conditions where ITK and Eu-anti-GST antibody are added to a mixture of compound and kinase tracer. IC50 values of compounds are determined using a 4 parameter logistical fit of emission ratio as a function of the concentration of compound.

[2] = tested on: ITK phosphorylation of its substrate, PLCγ1, at Y783; test: ITK target modulation assay (phospho-Y783 PLCγ1 immunoblot in Jurkat T cells); format: cell-based; conditions: 2 hours compound, CD3/CD28 Dynabeads stimulation 100 sec, anti-phospho-Y783 PLCγ1 immunoblot, read-out: PLC-γ Inhibition IC50
Method: Target modulation was based upon the ability of a compound to inhibit ITK phosphorylation of its substrate, PLCγ1, at […]. Human Jurkat T cells were placed in snap-cap polypropylene tubes at 4 million per tube in 800 μL medium (RPMI1640 with 10% heat inactivated serum and […] 2-mercaptoethanol and supplemented with glutamine/penicillin/streptomycin). Compounds were added as 100 μL of 10× working stock solutions in medium with 1% DMSO (or medium with 1% DMSO for controls) and placed in a 37° C. incubator for 2 hours. Stimulation was carried out using CD3/CD28 Dynabeads to activate the T cell receptor and mimic antigen presenting cells. Beads were added for 100 sec at a ratio of 1 bead per cell, in 100 μL medium (or medium alone for unstimulated control). Starting at 70 sec, cells and beads were pelleted in a microfuge for 15 sec, the supernatant aspirated, and 50 μL lysis buffer was added per tube and mixed with the pellet at the 100 sec time point. Tubes were placed on a rotator for 30 min at 4° C., and cell debris was pelleted in a microfuge. Supernatant was mixed 1:1 with 2× Sample Buffer and subjected to SDS-polyacrylamide gel electrophoresis. After transfer to nitrocellulose, immunoblotting was done with anti-phospho-[…] PLCγ1 antibody. Immunoblots were visualized with ECL using horseradish peroxidase conjugated secondary antibody.

IC50 [1]	IC50 ([2]; Homo sapiens, Jurkat, 2 h)	IC50 ([2]; Human Jurkat T cells)	SMILES
≤ 100 nM	≤ 1000 nM	–	Cc1cc(-c2c[nH]c3ncc(-c4cc(NC(=O)/C=C/CN(C)C)cc(C(F)(F)F)c4)cc23)ccn1 [Example 33, (E)-4-(dimethyl-amino)-N-(3-(3-(2-methylpyridin-4-yl)-1H-pyrrolo-[2,3-b]-pyridin-5-yl)-5-(trifluoro-methyl)phenyl)-but-2-enamide]
≤ 100 nM	≤ 1000 nM	–	C=CC(=O)Nc1cncc(-c2cnc3[nH]cc(-c4ccnc(C#N)c4)c3c2)c1 [Example 34, N-(5-(3-(2-cyano-pyridin-4-yl)-1H-pyrrolo[2,3-b]-pyridin-5-yl)-pyridin-3-yl)-acrylamide]
≤ 100 nM	≤ 1000 nM	–	C=CC(=O)Nc1cc(-c2cnc3[nH]cc(-c4ccnc(C#N)c4)c3c2)cc(C(F)(F)F)c1 [Example 35, N-(3-(3-(2-cyano-pyridin-4-yl)-1H-pyrrolo[2,3-b]-pyridin-5-yl)-5-(trifluoromethyl)-phenyl)acrylamide]
≤ 100 nM	–	≤ 1000 nM	CN(C)C/C=C/C(=O)Nc1cncc(-c2cnc3[nH]cc(-c4ccnc(C#N)c4)c3c2)c1 [Example 36, (E)-N-(5-(3-(2-cyanopyridin-4-yl)-1H-pyrrolo-[2,3-b]pyridin-5-yl)pyridin-3-yl)-4-(dimethyl-amino)but-2-enamide]
≤ 100 nM	≤ 1000 nM	–	COc1cc(NC(=O)/C=C/CN(C)C)cc(-c2cnc3[nH]cc(-c4ccnc(C)c4)c3c2)c1 [Example 37]
≤ 100 nM	≤ 1000 nM	–	COc1cc(NC(=O)/C=C/CN(C)C)cc(-c2cnc3[nH]cc(-c4ccnc(F)c4)c3c2)c1 [Example 38, (E)-4-(dimethyl-amino)-N-(3-(3-(2-fluoropyridin-4-yl)-1H-pyrrolo-[2,3-b]pyridin-5-yl)-5-methoxy-phenyl)but-2-enamide]
≤ 100 nM	≤ 1000 nM	–	COc1cc(NC(=O)/C=C/CN(C)C)cc(-c2cnc3[nH]cc(-c4ccnc(C#N)c4)c3c2)c1 [Example 39, (E)-N-(3-(3-(2-cyanopyridin-4-yl)-1H-pyrrolo-[2,3-b]pyridin-5-yl)-5-methoxy-phenyl)-4-(dimethylamino)-but-2-enamide]
≤ 100 nM	≤ 1000 nM	–	CN(C)C/C=C/C(=O)Nc1cc(-c2cnc3[nH]cc(-c4ccnc(C#N)c4)c3c2)cc(C(F)(F)F)c1 [Example 40, (E)-N-(3-(3-(2-cyanopyridin-4-yl)-1H-pyrrolo-[2,3-b]pyridin-5-yl)-5-(trifluoro-methyl)phenyl)-4-(dimethyl-amino)but-2-enamide]
≤ 100 nM	≤ 1000 nM	–	C=CC(=O)Nc1cc(OC)cc(-c2cnc3[nH]cc(-c4ccnc(NC)n4)c3c2)c1 [Example 41, N-(3-methoxy-5-(3-(2-(methyl-amino)pyrimidin-4-yl)-1H-pyrrolo-[2,3-b]pyridin-5-yl)phenyl)acryl-amide]
≤ 100 nM	≤ 1000 nM	–	Cc1cc(-c2c[nH]c3ncc(-c4cncc(NC(=O)/C=C/CN(C)C)c4)cc23)ccn1 [Example 42, (E)-4-(dimethyl-amino)-N-(5-(3-(2-methylpyridin-4-yl)-1H-pyrrolo-[2,3-b]pyridin-5-yl)pyridin-3-yl)-but-2-enamide]
≤ 100 nM	≤ 1000 nM	–	C=CC(=O)Nc1cccc(-c2cnc3[nH]cc(-c4cccc(C#N)c4)c3c2C)c1 [Example 43, N-(3-(3-(3-cyano-phenyl)-4-methyl-1H-pyrrolo[2,3-b]pyridin-5-yl)-phenyl)acrylamide]
≤ 100 nM	≤ 1000 nM	–	C=CC(=O)Nc1cccc(-c2cnc3[nH]cc(-c4ccnc(C#N)c4)c3c2C)c1 [Example 44, N-(3-(3-(2-cyano-pyridin-4-yl)-4-methyl-1H-pyrrolo[2,3-b]-pyridin-5-yl)-phenyl)acrylamide]
≤ 100 nM	≤ 1000 nM	–	CN(C)C/C=C/C(=O)Nc1cncc(-c2cnc3[nH]cc(-c4ccnc(F)c4)c3c2)c1 [Example 45, (E)-4-(dimethyl-amino)-N-(5-(3-(2-fluoropyridin-4-yl)-1H-pyrrolo-[2,3-b]pyridin-5-yl)pyridin-3-yl)-but-2-enamide]
≤ 100 nM	1000 to 5000 nM	–	CNc1nccc(-c2c[nH]c3ncc(-c4cc(NC(=O)/C=C/CN(C)C)cc(OC)c4)cc23)n1 [Example 46, (E)-4-(dimethyl-amino)-N-(3-methoxy-5-(3-(2-(methylamino)-pyrimidin-4-yl)-1H-pyrrolo[2,3-b]-pyridin-5-yl)-phenyl)but-2-enamide]
≤ 100 nM	1000 to 5000 nM	–	C=CC(=O)Nc1cc(OC(F)(F)F)cc(-c2cnc3[nH]cc(-c4cccc(C#N)c4)c3c2)c1 [Example 47, N-(3-(3-(3-cyano-phenyl)-1H-pyrrolo[2,3-b]-pyridin-5-yl)-5-(trifluoromethoxy)-phenyl)acrylamide]
≤ 100 nM	≤ 1000 nM	–	Cc1cc(-c2c[nH]c3ncc(-c4cccc(NC(=O)/C=C/CN(C)C)c4)cc23)ccn1 [Example 48, (E)-4-(dimethyl-amino)-N-(3-(3-(2-methylpyridin-4-yl)-1H-pyrrolo-[2,3-b]pyridin-5-yl)phenyl)but-2-enamide]
≤ 100 nM	≤ 1000 nM	–	CN(C)C/C=C/C(=O)Nc1cc(-c2cnc3[nH]cc(-c4ccncn4)c3c2)cc(C(F)(F)F)c1 [Example 49, (E)-4-(dimethyl-amino)-N-(3-(3-(pyrimidin-4-yl)-1H-pyrrolo[2,3-b]pyridin-5-yl)-5-(trifluoro-methyl)phenyl)-but-2-enamide]
≤ 100 nM	≤ 1000 nM	–	C=CC(=O)Nc1cncc(-c2cnc3[nH]cc(-c4ccncn4)c3c2)c1 [Example 50, N-(5-(3-(pyrimidin-4-yl)-1H-pyrrolo-[2,3-b]pyridin-5-yl)pyridin-3-yl)acrylamide]
≤ 100 nM	> 5000 nM	–	C=CC(=O)Nc1cc(OC)cc(-c2cnc3[nH]cc(-c4ccnc(C#N)c4)c3c2)c1 [Example 51, N-(3-(3-(2-cyano-pyridin-4-yl)-1H-pyrrolo[2,3-b]-pyridin-5-yl)-5-methoxyphenyl)-acrylamide]
≤ 100 nM	1000 to 5000 nM	–	COc1cc(NC(=O)/C=C/CN(C)C)cc(-c2cnc3[nH]cc(-c4ccncn4)c3c2)c1 [Example 52, (E)-4-(dimethyl-amino)-N-(3-methoxy-5-(3-(pyrimidin-4-yl)-1H-pyrrolo-[2,3-b]pyridin-5-yl)phenyl)but-2-enamide]
≤ 100 nM	≤ 1000 nM	–	COc1cc(NC(=O)/C=C/CN(C)C)cc(-c2cnc3[nH]cc(-c4ccncc4)c3c2)c1 [Example 53, (E)-4-(dimethyl-amino)-N-(3-methoxy-5-(3-(pyridin-4-yl)-1H-pyrrolo[2,3-b]pyridin-5-yl)phenyl)but-2-enamide]
≤ 1000 nM	1000 to 5000 nM	–	CN(C)C/C=C/C(=O)Nc1cc(-c2cnc3[nH]cc(-c4ccnc5[nH]ccc45)c3c2)cc(C(F)(F)F)c1 [Example 54, (E)-N-(3-(1H,1′H-[3,4′-bipyrrolo-[2,3-b]pyridin]-5-yl)-5-(trifluoro-methyl)phenyl)-4-(dimethylamino)-but-2-enamide]
